Measured values reported in patent US8377914B2, “Method of inducing negative chemotaxis” (Celtaxsys, Inc., priority 2008, dated 2013).
Read-outs that look alike come from different tables or passages of the source.

Tested on: neutrophils
Assay: Chemorepulsion assay of neutrophils in Neuroprobe ChemoTx plates, migrated cells quantified with Cell Titer Glo
Type: cell-based, human
Settings: for Activity (chemorepulsive activity): screened at 3.7, 11.1, 33.3 and 100 uM
Procedure: The chemorepulsive activity of idebenone, benazepril, rolipram, moxonidine, lamivudine, calcitriol, calcipotriol, loxoprofen, terbinafine, Synephrine and 6-aminoindazole was determined as follows: • 1. Prior to beginning the assay, the following were prepared: • a. 0.5% Fetal Calf Serum (FCS) in Iscove's Modified Dulbecco's Medium (IMDM) (Assay Medium) (Both from ATCC). • b. Migratory cells at a concentration of 2×10^7 cells/ml in Assay Medium. • c. The indicated dilutions of the ligand of interest in Assay Medium were prepared. • 2. The assay plates are Neuroprobe ChemoTx plates, part number 206-3 (3 um pore size) for neutrophils. • 3. The plates were removed from packaging, leaving the membrane behind. • 4. 31 μl of the following solutions were pipetted into each well: • a. For media controls and for chemorepulsion samples, Assay Medium was used. • b. For chemoattraction samples, appropriate dilution of ligand was used. • 5. A sterile needle was used to pop any and all small bubbles present in each well. • 6. The membrane was carefully placed onto the plate, starting at one side and then slowly lowering the other edge onto the plate. • 7. 29 μl of the following were pipetted onto the top of each circle: • a. For media controls and chemoattraction (CA) samples, use Assay Medium. • b. For chemorepulsion (CR) samples, use the appropriate dilution of ligand. • 8. 2 μl of cells (40,000 cells) were added to each bubble of liquid from step 7. • 9. A needle was used to pop all air bubbles. • 10. The plate was covered with the supplied lid and incubated for the desired time at 37° C. in 5% CO2. Unless otherwise indicated, the incubation time was 1 hour for neutrophils and 3 hours for T cells. For monocytes and B cells, the incubation time was 2 hours. • 11. After the desired assay time, the liquid was removed from the top of the plate using a Kimwipe. At this point, the plate was stored (with the membrane in place) for up to 2 hours at 4° C. • 12. The membrane was carefully removed from the top of the plate and discard. The plate was examined under a microscope to look for ligand crystallization, contamination and overall migration. • 13. White read plates were preloaded with 25 ul PBS. • 14. Using a multichannel pipettor, 5 ul of Cell Titer Glo (Promega # G7572) was added to each well. • 15. Using a multichannel pipettor set at 30 ul, lysed cell solution was transferred to white read plates pre-loaded with PBS. • 16. The plate was read using the BioTek Synergy4 plate reader in order to quantify the number of migrated cells.
The calcitriol analogs listed below were screened at concentrations of 3.7, 11.1, 33.3 and 100 uM as described above for chemorepulsive activity (FIGS. 11-13).

[1] = Homo sapiens, Neutrophil, neutrophils, 0.1 uM, replicates, read-out: fold induction of chemorepulsion over media
[2] = Homo sapiens, Neutrophil, read-out: fold induction of chemorepulsion over media

## C=C1/C(=C\C=C2/CCC[C@]3(C)[C@@H]([C@H](C)CCCC(C)C)CC[C@@H]23)C[C@@H](O)C[C@@H]1O [1α-hydroxycholecalciferol]
neutrophils
  Activity (chemorepulsive activity): No activity

## C=C1/C(=C\C=C2/CCC[C@]3(C)[C@@H]([C@H](C)/C=C/[C@H](C)C(C)C)CC[C@@H]23)C[C@@H](O)C[C@@H]1O [1α-hydroxyvitamin D2]
neutrophils
  Activity (chemorepulsive activity): No activity

## Nc1ccc2c[nH]nc2c1 [6-aminoindazole]
[1]
  fold induction at 0.1 µM: > 3

## C=C1CC[C@H](O)C/C1=C/C=C1\CCC[C@]2(C)[C@@H]([C@H](C)CCCC(C)(C)O)CC[C@@H]12 [Calcefidiol]
neutrophils
  Activity (chemorepulsive activity): No activity

## C=C1/C(=C\C=C2/CCC[C@]3(C)[C@@H]([C@H](C)/C=C/[C@@H](O)C4CC4)CC[C@@H]23)C[C@@H](O)C[C@@H]1O [Calcipotriene]
neutrophils
  Activity (chemorepulsive activity): Chemorepellant

## C=C1CC[C@H](O)C/C1=C/C=C1\CCC[C@]2(C)[C@@H]([C@H](C)/C=C/[C@H](C)C(C)C)CC[C@@H]12 [Vitamin D2, ergocalciferol]
neutrophils
  Activity (chemorepulsive activity): Chemorepellant

## C=C1CC[C@H](O)C/C1=C/C=C1\CCC[C@]2(C)[C@@H]([C@H](C)CCCC(C)C)CC[C@@H]12 [Vitamin D3, cholecalciferol]
neutrophils
  Activity (chemorepulsive activity): Chemorepellant

## CCOC(=O)[C@H](CCc1ccccc1)N[C@H]1CCc2ccccc2N(CC(=O)O)C1=O [benazepril]
[2]
  fold induction at 0.92 µM: ~2

## C=C1/C(=C\C=C2/CCCC3(C)C2CCC3[C@@H](C)CCCC(C)(C)O)C[C@@H](O)CC1O (stereo partly drawn) [calcitriol, 1,25-dihydroxyvitamin D]
Homo sapiens, Neutrophil, neutrophils, 100 uM, read-out: fold induction of chemorepulsion over media
  fold induction at 100 µM: > 3

## CC(C(=O)O)c1ccc(CC2CCCC2=O)cc1 (stereo not drawn) [loxoprofen]
[2]
  fold induction at 0.091 µM: > 2

## COc1nc(C)nc(Cl)c1NC1=NCCN1 [moxonidine]
Homo sapiens, Neutrophil, neutrophils, 0.092 uM, replicates, read-out: fold induction of chemorepulsion over media
  fold induction at 0.092 µM: ~2
Homo sapiens, Neutrophil, neutrophils, 9.9 uM, replicates, read-out: fold induction of chemorepulsion over media
  fold induction at 9.9 µM: > 2

## COc1ccc(C2CNC(=O)C2)cc1OC1CCCC1 (stereo not drawn) [rolipram, 4-(3-cyclopentyloxy-4-methoxy-phenyl)pyrrolidin-2-one]
[1]
  fold induction at 0.1 µM: 2

## CNCC(O)c1ccc(O)cc1 (stereo not drawn) [synephrine]
[2]
  fold induction at 0.1 µM: > 2

## CN(C/C=C/C#CC(C)(C)C)Cc1cccc2ccccc12 [terbinafine, N,6,6-trimethyl-N-(naphthalen-1-ylmethyl)hept-2-en-4-yn-1-amine]
Homo sapiens, Neutrophil, neutrophils, 89 uM, read-out: fold induction of chemorepulsion over media
  fold induction at 89 µM: > 2.5
